The values that follow come from ChEMBL document CHEMBL4417633, “Inhibitory polypeptides specific to WNT inhibitors” (2017).

pIC50: −log10 of the molar value. Where a SMILES comes first, the peptide text is derived from it. Some results are limits rather than exact numbers.

Test [1] deals with T1, Dickkopf-related protein 1 (Homo sapiens, UniProt O94907).
T1 sequence (O94907 whole entry): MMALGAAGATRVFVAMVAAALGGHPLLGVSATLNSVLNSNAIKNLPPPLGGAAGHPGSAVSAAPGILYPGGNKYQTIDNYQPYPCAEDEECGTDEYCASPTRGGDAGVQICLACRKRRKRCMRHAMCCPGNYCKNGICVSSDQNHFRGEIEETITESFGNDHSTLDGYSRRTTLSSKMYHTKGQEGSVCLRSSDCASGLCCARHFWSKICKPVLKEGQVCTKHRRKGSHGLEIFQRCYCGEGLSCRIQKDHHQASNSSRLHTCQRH
The experiment in a line: Inhibition of biotin-labeled human recombinant DKK1 assessed as reduction in DKK1 interaction with LRP-6/Fc incubated overnight by chemiluminescence based Alpha-screen assay.

Test [2] has as its target T2, Dickkopf WNT-signaling pathway inhibitor 1 (Rattus norvegicus, UniProt A6I0Z0).
T2 sequence (A6I0Z0 whole entry): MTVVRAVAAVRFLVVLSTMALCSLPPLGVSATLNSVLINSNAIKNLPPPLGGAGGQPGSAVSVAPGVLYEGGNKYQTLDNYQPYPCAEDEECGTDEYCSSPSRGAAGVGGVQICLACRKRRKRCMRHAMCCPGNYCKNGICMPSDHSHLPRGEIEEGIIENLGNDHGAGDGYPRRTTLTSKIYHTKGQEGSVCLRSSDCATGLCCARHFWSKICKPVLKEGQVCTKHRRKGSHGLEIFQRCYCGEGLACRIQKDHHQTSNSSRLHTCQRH
The experiment in a line: Inhibition of biotin-labeled rat recombinant DKK1 assessed as reduction in DKK1 interaction with LRP-6/Fc incubated overnight by chemiluminescence based Alpha-screen assay. A general note: Bead proximity is the source of the signal in Alpha formats.

For `CSCC[C@H](NC(=O)[C@H](CCCCN)NC(=O)[C@H](CC(=O)O)NC(=O)[C@@H]1CCCN1C(=O)[C@H](CS)NC(=O)[C@H](CCSC)NC(=O)[C@H](Cc1ccccc1)NC(=O)[C@H](CCC(=O)O)NC(=O)[C@H](CC(N)=O)NC(=O)[C@H](CO)NC(=O)[C@@H]1CCCN1C(=O)[C@@H](N)CS)C(=O)N[C@@H](CS)C(=O)N[C@@H](Cc1ccccc1)C(=O)N1CCC[C@H]1C(=O)N[C@@H](CC(C)C)C(=O)N[C@@H](CO)C(=O)N[C@@H](Cc1ccccc1)C(=O)N[C@@H](CCCNC(=N)N)C(=O)N[C@@H](CS)C(=O)N[C@@H](CC(=O)O)C(=O)NCC(=O)N[C@@H](CCC(=O)O)C(=O)N[C@@H](CC(N)=O)C(=O)N[C@@H](CC(=O)O)C(=O)N[C@@H](CS)C(=O)N[C@@H](CCC(=O)O)C(=O)N[C@@H](CC(=O)O)C(=O)NCC(=O)N[C@@H](CO)C(=O)N[C@@H](CC(=O)O)C(=O)N[C@@H](CCC(=O)O)C(=O)N[C@@H](CC(C)C)C(=O)N[C@@H](Cc1ccc(O)cc1)C(=O)N[C@@H](CS)C(=O)N1CCC[C@H]1C(=O)N[C@@H](CO)C(=O)N[C@@H](CCCNC(=N)N)C(=O)N[C@H](C(=O)O)[C@@H](C)O` (H-CPSNEFMCPDKMCFPLSFRCDGENDCEDGSDELYCPSRT-OH), the pIC50 in test [1] and in test [2] was ≥ 9.00 in each case.
Turning to `CSCC[C@H](NC(=O)[C@@H]1CCCN1C(=O)[C@H](Cc1ccc(O)cc1)NC(=O)[C@H](CS)NC(=O)[C@H](Cc1cnc[nH]1)NC(=O)[C@H](CCCCN)NC(=O)[C@H](Cc1ccccc1)NC(=O)[C@H](CC(N)=O)NC(=O)[C@H](Cc1c[nH]c2ccccc12)NC(=O)[C@H](CS)NC(=O)[C@H](CCC(N)=O)NC(=O)[C@H](Cc1ccccc1)NC(=O)[C@H](Cc1ccc(O)cc1)NC(=O)[C@H](CO)NC(=O)[C@H](C)NC(=O)[C@@H]1CCCN1C(=O)[C@@H](N)CS)C(=O)N[C@@H](CCC(=O)O)C(=O)N[C@@H](Cc1c[nH]c2ccccc12)C(=O)N[C@@H](CCCNC(=N)N)C(=O)N[C@@H](CS)C(=O)N[C@@H](CC(=O)O)C(=O)NCC(=O)N[C@@H](Cc1ccccc1)C(=O)N[C@@H](CC(N)=O)C(=O)N[C@@H](CC(=O)O)C(=O)N[C@@H](CS)C(=O)N[C@H](C(=O)N[C@@H](CC(=O)O)C(=O)NCC(=O)N[C@@H](CO)C(=O)N[C@@H](CC(=O)O)C(=O)N[C@@H](CCC(=O)O)C(=O)N[C@@H](CCCCN)C(=O)NCC(=O)N[C@@H](CS)C(=O)N1CCC[C@H]1C(=O)N[C@@H](Cc1ccc(O)cc1)C(=O)N[C@@H](CCCNC(=N)N)C(=O)N[C@H](C(=O)O)[C@@H](C)O)C(C)C` (H-CPASYFQCWNFKHCYPMEWRCDGFNDCVDGSDEKGCPYRT-OH), the pIC50 in test [1] and in test [2] was ≥ 9.00 throughout.
In the case of `CSCC[C@H](NC(=O)[C@@H]1CCCN1C(=O)[C@H](Cc1ccc(O)cc1)NC(=O)[C@H](CS)NC(=O)[C@H](Cc1cnc[nH]1)NC(=O)[C@@H]1CCCN1C(=O)[C@H](Cc1cnc[nH]1)NC(=O)[C@H](CCCCN)NC(=O)[C@H](CC(C)C)NC(=O)[C@H](CS)NC(=O)[C@H](CCC(N)=O)NC(=O)[C@H](Cc1ccccc1)NC(=O)[C@H](Cc1ccc(O)cc1)NC(=O)[C@H](CO)NC(=O)[C@H](C)NC(=O)[C@@H]1CCCN1C(=O)[C@@H](N)CS)C(=O)N[C@@H](CCC(=O)O)C(=O)N[C@@H](Cc1c[nH]c2ccccc12)C(=O)N[C@@H](CCCNC(=N)N)C(=O)N[C@@H](CS)C(=O)N[C@@H](CC(=O)O)C(=O)NCC(=O)N[C@@H](Cc1ccccc1)C(=O)N[C@@H](CC(=O)O)C(=O)N[C@@H](CC(=O)O)C(=O)N[C@@H](CS)C(=O)N[C@@H](CCC(=O)O)C(=O)N[C@@H](CC(=O)O)C(=O)NCC(=O)N[C@@H](CO)C(=O)N[C@@H](CC(=O)O)C(=O)N[C@@H](CCC(=O)O)C(=O)N[C@H](C(=O)NCC(=O)N[C@@H](CS)C(=O)N1CCC[C@H]1C(=O)N[C@@H](Cc1ccc(O)cc1)C(=O)N[C@@H](CCCNC(=N)N)C(=O)N[C@H](C(=O)O)[C@@H](C)O)[C@@H](C)O` (H-CPASYFQCLKHPHCYPMEWRCDGFDDCEDGSDETGCPYRT-OH), the pIC50 in test [1] and in test [2] was ≥ 9.00 throughout.
With `CC[C@H](C)[C@H](NC(=O)[C@H](CC(C)C)NC(=O)[C@@H]1CCCN1C(=O)[C@H](Cc1ccccc1)NC(=O)[C@H](CS)NC(=O)[C@H](CCSC)NC(=O)[C@H](CCCCN)NC(=O)[C@H](CC(=O)O)NC(=O)[C@H](C)NC(=O)[C@H](CS)NC(=O)[C@H](CCSC)NC(=O)[C@H](Cc1ccccc1)NC(=O)[C@H](CCC(=O)O)NC(=O)[C@H](CC(N)=O)NC(=O)[C@H](CO)NC(=O)[C@@H]1CCCN1C(=O)[C@@H](N)CS)C(=O)N[C@@H](Cc1ccccc1)C(=O)N[C@@H](CC(C)C)C(=O)N[C@@H](CS)C(=O)N[C@@H](CC(=O)O)C(=O)NCC(=O)N[C@@H](CCC(=O)O)C(=O)N[C@@H](CC(N)=O)C(=O)N[C@@H](CC(=O)O)C(=O)N[C@@H](CS)C(=O)N[C@@H](CCC(=O)O)C(=O)N[C@@H](CC(=O)O)C(=O)NCC(=O)N[C@@H](CO)C(=O)N[C@@H](CC(=O)O)C(=O)N[C@@H](CCC(=O)O)C(=O)N[C@H](C(=O)N[C@@H](CC(=O)O)C(=O)N[C@@H](CS)C(=O)N1CCC[C@H]1C(=O)N[C@@H](CO)C(=O)N[C@@H](CCCNC(=N)N)C(=O)N[C@H](C(=O)O)[C@@H](C)O)C(C)C` (H-CPSNEFMCADKMCFPLIFLCDGENDCEDGSDEVDCPSRT-OH), the negative-log IC50 (pIC50) in test [1] and in test [2] was 7.10 to 7.40 each time.
Turning to `CSCC[C@H](NC(=O)[C@@H]1CCCN1C(=O)[C@H](Cc1ccc(O)cc1)NC(=O)[C@H](CS)NC(=O)[C@H](Cc1cnc[nH]1)NC(=O)[C@@H]1CCCN1C(=O)[C@H](Cc1cnc[nH]1)NC(=O)[C@H](CO)NC(=O)CNC(=O)[C@H](CS)NC(=O)[C@H](CCC(N)=O)NC(=O)[C@H](Cc1ccccc1)NC(=O)[C@H](Cc1ccc(O)cc1)NC(=O)[C@H](CO)NC(=O)[C@H](C)NC(=O)[C@@H]1CCCN1C(=O)[C@@H](N)CS)C(=O)N[C@@H](CCC(=O)O)C(=O)N[C@@H](Cc1c[nH]c2ccccc12)C(=O)N[C@@H](CCCNC(=N)N)C(=O)N[C@@H](CS)C(=O)N[C@@H](CC(=O)O)C(=O)NCC(=O)N[C@@H](Cc1ccccc1)C(=O)N[C@@H](CCC(N)=O)C(=O)N[C@@H](CC(=O)O)C(=O)N[C@@H](CS)C(=O)N[C@@H](CCC(=O)O)C(=O)N[C@@H](CC(=O)O)C(=O)NCC(=O)N[C@@H](CO)C(=O)N[C@@H](CC(=O)O)C(=O)N[C@@H](CCC(=O)O)C(=O)N[C@@H](CC(C)C)C(=O)NCC(=O)N[C@@H](CS)C(=O)N1CCC[C@H]1C(=O)N[C@@H](Cc1ccc(O)cc1)C(=O)N[C@@H](CCCNC(=N)N)C(=O)N[C@H](C(=O)O)[C@@H](C)O` (H-CPASYFQCGSHPHCYPMEWRCDGFQDCEDGSDELGCPYRT-OH), the pIC50 in test [1] and in test [2] was ≥ 9.00 throughout.
`CSCC[C@H](NC(=O)[C@@H]1CCCN1C(=O)[C@H](Cc1ccc(O)cc1)NC(=O)[C@H](CS)NC(=O)[C@H](Cc1cnc[nH]1)NC(=O)[C@H](CC(N)=O)NC(=O)[C@H](CCCNC(=N)N)NC(=O)[C@H](Cc1cnc[nH]1)NC(=O)[C@H](CCCNC(=N)N)NC(=O)[C@H](CS)NC(=O)[C@H](CCCCN)NC(=O)[C@H](Cc1ccccc1)NC(=O)[C@H](Cc1ccc(O)cc1)NC(=O)[C@H](CO)NC(=O)[C@@H](NC(=O)[C@@H]1CCCN1C(=O)[C@@H](N)CS)C(C)C)C(=O)N[C@@H](CCC(=O)O)C(=O)N[C@@H](Cc1c[nH]c2ccccc12)C(=O)N[C@@H](CCCNC(=N)N)C(=O)N[C@@H](CS)C(=O)N[C@@H](CC(=O)O)C(=O)NCC(=O)N[C@@H](Cc1ccccc1)C(=O)N1CCC[C@H]1C(=O)N[C@@H](CC(=O)O)C(=O)N[C@@H](CS)C(=O)N[C@@H](CC(=O)O)C(=O)N[C@@H](CC(=O)O)C(=O)NCC(=O)N[C@@H](CO)C(=O)N[C@@H](CC(=O)O)C(=O)N[C@@H](CCC(=O)O)C(=O)N[C@@H](CCCNC(=N)N)C(=O)NCC(=O)N[C@@H](CS)C(=O)N1CCC[C@H]1C(=O)N[C@@H](Cc1ccc(O)cc1)C(=O)N[C@@H](CCCNC(=N)N)C(=O)N[C@H](C(=O)O)[C@@H](C)O` (H-CPVSYFKCRHRNHCYPMEWRCDGFPDCDDGSDERGCPYRT-OH): the pIC50 in test [1] and in test [2] was ≥ 9.00 each time.
Consider `CSCC[C@H](NC(=O)[C@@H]1CCCN1C(=O)[C@H](Cc1ccc(O)cc1)NC(=O)[C@H](CS)NC(=O)[C@H](Cc1cnc[nH]1)NC(=O)[C@H](CC(N)=O)NC(=O)[C@H](CCCCN)NC(=O)[C@H](CC(N)=O)NC(=O)[C@H](CCCNC(=N)N)NC(=O)[C@H](CS)NC(=O)[C@H](CCCCN)NC(=O)[C@H](Cc1ccccc1)NC(=O)[C@H](Cc1ccc(O)cc1)NC(=O)[C@H](CO)NC(=O)[C@@H](NC(=O)[C@@H]1CCCN1C(=O)[C@@H](N)CS)C(C)C)C(=O)N[C@@H](CCC(=O)O)C(=O)N[C@@H](Cc1c[nH]c2ccccc12)C(=O)N[C@@H](CCCNC(=N)N)C(=O)N[C@@H](CS)C(=O)N[C@@H](CC(=O)O)C(=O)NCC(=O)N[C@@H](Cc1ccccc1)C(=O)N1CCC[C@H]1C(=O)N[C@@H](CC(=O)O)C(=O)N[C@@H](CS)C(=O)N[C@@H](CCC(=O)O)C(=O)N[C@@H](CC(=O)O)C(=O)NCC(=O)N[C@@H](CO)C(=O)N[C@@H](CC(=O)O)C(=O)N[C@@H](CCC(=O)O)C(=O)N[C@@H](CCCCN)C(=O)NCC(=O)N[C@@H](CS)C(=O)N1CCC[C@H]1C(=O)N[C@@H](Cc1ccc(O)cc1)C(=O)N[C@@H](CCCNC(=N)N)C(=O)N[C@H](C(=O)O)[C@@H](C)O` (H-CPVSYFKCRNKNHCYPMEWRCDGFPDCEDGSDEKGCPYRT-OH), for which the negative-log IC50 (pIC50) in test [1] and in test [2] was ≥ 9.00 throughout.
